Reference: patent publication US20020042393A1, “Excipient” (priority 1998, published 2002)
Each block holds one compound with its values, some of them ahead of it.

Columns and labels:
[1] = Angle of repose (Sugiwara's instrument); assay type: physicochemical; conditions: excipient powder
Text: Measured by means of a Sugiwara's instrument for measuring angle of repose (Yakuzaigaku 27, p. 260, 1965).

[2] = Average particle size (sieving, 50% cumulative weight); assay type: physicochemical; conditions: excipient powder
Protocol: Five grams of trehalose was sifted through screens having screen openings of 500 μm, 300 μm and 250 μm, respectively, and then sifted with Air Jet Sieve by using screens having screen openings of 150 μm, 75 μm, 45 μm, 38 μm and 32 μm, respectively. The oversize particle weight percentage [%] was calculated for each screen, and the average particle size is expressed as a particle size corresponding to a cumulative weight percentage of 50%.

[3] = Proportion of particles of 75 μm or more (Air Jet Sieve); assay type: physicochemical; conditions: excipient powder
Protocol: Five grams of trehalose was weighed onto a screen having a screen opening of 75 μm, and sifted with Air Jet Sieve (Model 200LS, mfd. by ALPINE) for 5 minutes, and the weight percentage of the weight of particles remaining on the screen based on the total weight of particles was calculated as the proportion of particles of 75 μm or more.

Apparent specific volume = assay type: physicochemical; conditions: excipient powder
Text: The whole of 10 g of trehalose powder was gently poured into a 100-ml measuring cylinder without making an impact (in this case, a cylinder having an outside diameter smaller than the inside diameter of the measuring cylinder was placed in the measuring cylinder, and it was slowly lifted after pouring the trehalose), and the apparent specific volume was expressed as a value obtained by dividing the read volume by the weight of the trehalose.

[4] = Change in whiteness of excipient mixed with drug at 40° C. and 75% RH (reactivity); assay type: physicochemical
Protocol: (§1) For powder of trehalose or a pharmaceutical composition containing trehalose, values of L, a and b were measured with a color analyzer (TC-1800MKII, mfd. by Tokyo Denshoku Co., Ltd.), and the whiteness of the trehalose or pharmaceutical composition was calculated by the following equation: […]
One gram of each of the trehaloses obtained in Example 1 and 1 g of isoniazid were mixed and then allowed to stand in an atmosphere of 40° C. and 75% RH, and the change in whiteness of the trehalose was observed. On the other hand, 1 g of each of the trehaloses obtained in Example 1 and 1 g of aminophyline were mixed and then allowed to stand in an atmosphere of 40° C. and 75% RH, and the change in whiteness of the trehalose was observed.
One gram of 100-mesh lactose (available from De Melkindustrie Veghel bv) or 1 g of Mannit S (available from Tohwa Kasei Co., Ltd.) and 1 g of aminophyline were mixed and then allowed to stand in an atmosphere of 40° C. and 75% RH, and the change in whiteness of the lactose or Mannit S was observed.
As a starting material. […]

[5] = Disintegration time according to Japanese Pharmacopoeia; assay type: physicochemical; conditions: listed as C
Protocol: The disintegration time of each of six molded products was measured by the use of ion-exchanged water according to the disintegration time measuring method prescribed in the 13th revised Japanese Pharmacopoeia, and the average of measured values was calculated.

[6] = Tablet hardness (Schleuniger hardness meter); assay type: physicochemical; conditions: for Tablet hardness at a compression pressure of 1000 kg/cm^2: phenacetin granules
[7] = Water content (Karl Fisher) of tablets before and after storage; assay type: physicochemical; conditions: tablets compressed at 500 kg/cm^2, 0 day
Protocol: Determined as a value obtained by measuring about 0.1 g of trehalose and determining its water content by the Karl Fisher method.
One hundred grams of commercial “Trehaose” (available from Hayashibara Biochemical Laboratories, Inc.) was dissolved in water to a concentration of about 35 wt %, and the resulting solution was concentrated under reduced pressure with heating at 60° C. so as to have a concentration of about 75 wt %, and allowed to stand at room temperature to precipitate crystals, which were washed with 50 ml of water. Glucose was removed by carrying out the above purification procedure once or twice, to increase the trehalose purity. Trehalose A was obtained by carrying out the purification procedure twice to obtain crystals, drying the crystals, grinding the dried crystals with a bantam mill (number of revolutions 15,000 rpm, feed rate 5 kg/hr, and screen opening 2.0 mmφ), and then sifting the ground crystals through a […]. Trehalose B was obtained by carrying out the purification procedure once to obtain crystals, drying the crystals, grinding the dried crystals with a bantam mill (number of revolutions 10,000 rpm, feed rate 5 kg/hr, and screen opening 2.00 mmφ), and then sifting the ground crystals through a 350-μm screen. Trehalose C was obtained by carrying out the purification procedure once to obtain crystals, drying the crystals, grinding the dried crystals with a bantam mill (number of revolutions 8,000 rpm, feed rate 5 kg/hr, and screen opening 2.0 mmφ), and then sifting the ground crystals through a 350-μm screen. […] Each of trehaloses A to C was compressed into tablets at a compression pressure of 500 kg/cm^2, and the tablet hardness immediately after the compression and the tablet hardness after standing for 3 days in an atmosphere of 40° C. and 75% RH after the compression were compared.
“Trehaose” (available from Hayashibara Bioscience Laboratories Co., Ltd.) was purified once by the method described in Example 1 to obtain crystals, which were dried, ground with a bantam mill (number of revolutions 12,000 rpm, feed rate 5 kg/hr, and screen opening 2.0 mmφ) and then dried at 105° C. for 4 hours to obtain trehalose anhydrous crystals. These crystals were compressed into tablets at a compression pressure of 500 kg/cm^2, and the tablet hardnesses of the tablets were compared in the same manner as in Example 1.

[8] = Whiteness of powder (color analyzer); assay type: physicochemical; conditions: excipient powder
Protocol: as §1

[9] = Wet granulation of phenacetin mixture with HPC binder solution: granule size and yield
[10] = 1 g excipient + 1 g aminophyline, 0 day
[11] = 1 g excipient + 1 g aminophyline, 40° C. and 75% RH, 5 days

Compound: OC[C@H]1O[C@@H](O[C@H]2[C@H](O)[C@@H](O)C(O)O[C@@H]2CO)[C@H](O)[C@@H](O)[C@H]1O (some centres unmarked) [100-Mesh lactose, lactose, reference compound]
Angle of repose [1]: 43 ° | Average particle size [2]: 104 μm | Proportion of particles of 75 μm or more [3]: 76% | Apparent specific volume (Apparent specific volume): 1.5 cm^3/g | Whiteness [4, 10]: 99% | Whiteness [4, 11]: 30%

Compound: OC[C@@H](O)[C@@H](O)[C@H](O)[C@H](O)CO [Mannit S, reference compound]
Angle of repose ([1]; listed as Mannit 5): 53 ° | Average particle size ([2]; listed as Mannit 5): 102 μm | Proportion of particles of 75 μm or more ([3]; listed as Mannit 5): 68% | Apparent specific volume (Apparent specific volume; listed as Mannit 5): 1.7 cm^3/g | Whiteness [4, 10]: 100% | Whiteness ([4]; 1 g excipient + 1 g aminophyline, 40° C. and 75% RH, 1 month): 93% | Whiteness [4, 11]: 98%

Compound: OC[C@H]1O[C@H](O[C@H]2O[C@H](CO)[C@@H](O)[C@H](O)[C@H]2O)[C@H](O)[C@@H](O)[C@@H]1O [Trehalose C, trehalose]
Disintegration time according to Japanese Pharmacopoeia ([5]; Example 8: molded product of trehalose only, 30 kg/cm^2): 10 s | Disintegration time according to Japanese Pharmacopoeia ([5]; Example 10: as Example 9 but molded at 60 kg/cm^2): 33 s | Disintegration time according to Japanese Pharmacopoeia ([5]; process of Example 9: 950 g excipient + 50 g phenylpropanolamine hydrochloride, 30 kg/cm^2): 10 s | Angle of repose ([1]; listed as C): 40 ° | Average particle size ([2]; listed as C): 127 μm | Proportion of particles of 75 μm or more ([3]; listed as C): 73% | Tablet hardness ([6]; Example 8: molded product of trehalose only, molded at 30 kg/cm^2, dried overnight at 40° C., listed as C): 6.0 kg | Tablet hardness ([6]; Example 10: as Example 9 but molded at 60 kg/cm^2, listed as C): 8.6 kg | Tablet hardness ([6]; process of Example 9: 950 g excipient + 50 g phenylpropanolamine hydrochloride, molded at 30 kg/cm^2, listed as C): 5.6 kg | Tablet hardness ([6]; tablets compressed at 500 kg/cm^2, 0 day (immediately after compression), listed as C): 2.3 kgf | Tablet hardness ([6]; tablets compressed at 500 kg/cm^2, 3 days at 40° C. and 75% RH, listed as C): 2.3 kgf | Apparent specific volume (Apparent specific volume; listed as C): 1.9 cm^3/g | Water content ([7]; listed as C): 9.8% | Whiteness ([4]; 1 g excipient + 1 g aminophyline, 0 day, listed as C): 98% | Whiteness ([4]; 1 g excipient + 1 g aminophyline, 40° C. and 75% RH, 1 month, listed as C): 93% | Whiteness ([4]; 1 g excipient + 1 g isoniazid, 0 day, listed as C): 97% | Whiteness ([4]; 1 g excipient + 1 g isoniazid, 40° C. and 75% RH, 1 month, listed as C): 93% | Whiteness ([8]; listed as C): 95%

Compound: OC[C@H]1O[C@H](O[C@H]2O[C@H](CO)[C@@H](O)[C@H](O)[C@H]2O)[C@H](O)[C@@H](O)[C@@H]1O [Trehalose D, trehalose]
Angle of repose ([1]; listed as D): 65 ° | Angle of repose ([1]; listed as trehalose D): 65 ° | Average particle size ([2]; listed as D): 12 μm | Average particle size of granules ([9]; phenacetin 50/excipient 30/corn starch 10/microcrystalline cellulose 10, binding solution 100 g): 80 μm | Average particle size of granules ([9]; phenacetin granules, binding solution 120 g): 121 μm | Average particle size of granules ([9]; phenacetin granules, binding solution 160 g): 205 μm | Proportion of particles of 75 μm or more ([3]; listed as D): 1% | Tablet hardness at a compression pressure of 1000 kg/cm^2 ([6]; binding solution 100 g): 4.5 kgf | Tablet hardness at a compression pressure of 1000 kg/cm^2 ([6]; binding solution 120 g): 4.1 kgf | Tablet hardness at a compression pressure of 1000 kg/cm^2 ([6]; binding solution 160 g): 3.0 kgf | Apparent specific volume (Apparent specific volume; listed as D): 4.5 cm^3/g | Whiteness ([8]; listed as D): 96%

Compound: OC[C@H]1O[C@H](O[C@H]2O[C@H](CO)[C@@H](O)[C@H](O)[C@H]2O)[C@H](O)[C@@H](O)[C@@H]1O [Trehalose E, trehalose]
Angle of repose ([1]; listed as E): 55 ° | Angle of repose ([1]; listed as trehalose E): more than 50 ° | Average particle size ([2]; listed as E): 25 μm | Proportion of particles of 75 μm or more ([3]; listed as E): 3% | Apparent specific volume (Apparent specific volume; listed as E): 3.7 cm^3/g | Whiteness ([8]; listed as E): 96%

Compound: OC[C@H]1O[C@H](O[C@H]2O[C@H](CO)[C@@H](O)[C@H](O)[C@H]2O)[C@H](O)[C@@H](O)[C@@H]1O [Trehalose F, trehalose]
Angle of repose ([1]; listed as F): 45 ° | Average particle size ([2]; listed as F): 49 μm | Proportion of particles of 75 μm or more ([3]; listed as F): 28% | Tablet hardness ([6]; tablets compressed at 500 kg/cm^2, 0 day (immediately after compression), listed as F): 4.5 kgf | Apparent specific volume (Apparent specific volume; listed as F): 2.3 cm^3/g | Water content ([7]; listed as F): 0.5% | Whiteness ([8]; listed as F): 94%

Compound: OC[C@H]1O[C@H](O[C@H]2O[C@H](CO)[C@@H](O)[C@H](O)[C@H]2O)[C@H](O)[C@@H](O)[C@@H]1O [Trehalose G, trehalose]
Angle of repose ([1]; listed as G): 49 ° | Average particle size ([2]; listed as G): 31 μm | Proportion of particles of 75 μm or more ([3]; listed as G): 13% | Apparent specific volume (Apparent specific volume; listed as G): 3.1 cm^3/g | Whiteness ([4]; same manner as in Example 2 (drug not stated), 0 day): 94% | Whiteness ([4]; same manner as in Example 2 (drug not stated), 40° C. and 75% RH, 1 month, listed as G): 87% | Whiteness ([4]; same manner as in Example 2 (drug not stated), 40° C. and 75% RH, 1 month, listed as trehalose G): less than 90% | Whiteness ([8]; listed as G): 94%

Now from value to compound:

Angle of repose [1]: 37 ° | Average particle size [2]: 180 μm | Proportion of particles of 75 μm or more [3]: 91% | Apparent specific volume (Apparent specific volume): 1.5 cm^3/g | Whiteness [8]: 98%
Compound: OC[C@H]1O[C@H](O[C@H]2O[C@H](CO)[C@@H](O)[C@H](O)[C@H]2O)[C@H](O)[C@@H](O)[C@@H]1O [Trehalose H, trehalose]

Angle of repose [1]: 30 ° | Average particle size [2]: 280 μm | Proportion of particles of 75 μm or more [3]: 95% | Apparent specific volume (Apparent specific volume): 1.4 cm^3/g | Whiteness [8]: 96%
Compound: OC[C@H]1O[C@H](O[C@H]2O[C@H](CO)[C@@H](O)[C@H](O)[C@H]2O)[C@H](O)[C@@H](O)[C@@H]1O [Trehalose I, trehalose]

Average particle size ([2]; listed as L): 45 μm | Proportion of particles of 75 μm or more ([3]; listed as L): 25% | Apparent specific volume (Apparent specific volume; listed as L): 2.5 mL/g | Whiteness ([8]; listed as L): 95%
Compound: OC[C@H]1O[C@H](O[C@H]2O[C@H](CO)[C@@H](O)[C@H](O)[C@H]2O)[C@H](O)[C@@H](O)[C@@H]1O [Trehalose L, trehalose]

Average particle size ([2]; listed as M): 8 μm | Proportion of particles of 75 μm or more ([3]; listed as M): 1% | Apparent specific volume (Apparent specific volume; listed as M): 3.8 mL/g | Whiteness ([8]; listed as M): 97%
Compound: OC[C@H]1O[C@H](O[C@H]2O[C@H](CO)[C@@H](O)[C@H](O)[C@H]2O)[C@H](O)[C@@H](O)[C@@H]1O [Trehalose M, trehalose]

Average particle size ([2]; listed as N): 70 μm | Proportion of particles of 75 μm or more ([3]; listed as N): 45% | Apparent specific volume (Apparent specific volume; listed as N): 2.2 mL/g | Whiteness ([8]; listed as N): 88%
Compound: OC[C@H]1O[C@H](O[C@H]2O[C@H](CO)[C@@H](O)[C@H](O)[C@H]2O)[C@H](O)[C@@H](O)[C@@H]1O [Trehalose N, trehalose]
